pIC50: −log10 of the molar value.
Tested on: endothelium-ablated preparations of the rat aorta
Assay: Vasorelaxing effect to endothelium-ablated preparations of the rat aorta
Conditions: 10 min; endothelium-ablated rat aorta rings, contraction by 30 mM K^+, 37° C., sample compound cumulatively applied at intervals of 10 minutes; read-out: IC50 (50% inhibition concentration)
Description: Vasorelaxing effect to endothelium-ablated preparations of the rat aorta:
The aorta of each rat (body weight: 200 to 330 g) was isolated and cut at a width of about 3 mm. Endothelium was then ablated off to form a ring preparation. That preparation was incubated at 37° C., and then suspended under a load of 2 g in 10 ml of the Krebs-Henseleit solution which had been aerated with a mixed gas (95% O2, 5% CO2). Tension was isometrically recorded via an FD transducer ("T2-30-240", trade name; manufactured by Orientec) and a dynamic strain gauge ("6M81", trade name; manufactured by NEC-San-ei) Upon an elapsed time of 60 minutes or longer subsequent to the suspension, that is, after the preparation had become stable, 10^-7 M noradrenaline (Nor) was applied several times. Under contraction by 10^-7 M Nor, 10^-7 acetylcholine was applied. Preparations which were not relaxed by the application of 10^-7 acetylcholine were used in the experiment. 30 mM K^+ were applied. From the time point that its contraction had became uniform, a sample compound was cumulatively applied at intervals of 10 minutes so that the 50% inhibition concentration (IC50) was calculated.

| Structure (SMILES) | pIC50 |
| --- | --- |
| CC(=O)NN1CC(C)(C)Oc2ccc(S(=O)(=O)C(F)(F)C(F)(F)F)cc21 [compound 27] | 7.47 |
| CCC1(CC)CN(NC(C)=O)c2cc(C(F)(F)F)ccc2O1 [compound 24] | 7.42 |
| CCC(=O)NN1CC(C)(C)Oc2ccc(S(=O)(=O)C(F)(F)F)cc21 [compound 57] | 7.82 |
| C=CC(=O)NN1CC(C)(C)Oc2ccc([N+](=O)[O-])cc21 [compound 11] | 7.54 |
| CC1(C)CN(NC(=O)c2cccnc2)c2cc(C(F)(F)F)ccc2O1 [compound 20] | 7.29 |

Continued by rising pIC50, values first:

| pIC50 | Structure (SMILES) |
| --- | --- |
| 6.87 | CC1(C)Oc2ccc(C#N)cc2[C@@H](N2CCCC2=O)[C@@H]1O (racemic) [Cromakalim, (±)-trans-6-cyano-2,2-dimethyl-4-(2-oxopyrrolidin-1-yl)-3,4-dihydro-2H-1-benzopyran-3-ol, reference compound] |
| 7.84 | CC1(C)CN(NC(=O)c2cccnc2)c2cc(S(=O)(=O)C(F)(F)F)ccc2O1 [compound 58] |
| 7.90 | CCC(=O)NN1CC(C)(C)Oc2ccc([N+](=O)[O-])cc21 [Compound No. 8, 2,2-Dimethyl-6-nitro-4-propanoylamino-1,4-benzoxazine] |
| 8.02 | CC(=O)NN1CC(C)(C)Oc2ccc(S(=O)(=O)C(F)(F)F)cc21 [compound 56] |

From patent US5440036A, “1,4-benzoxazine derivatives” (SS Pharmaceutical Co., Ltd., priority 1992, dated 1995)
